From US8258321B2, “Beta-lactone compounds” (Burnham Institute for Medical Research, priority 2007, dated 2012) come the findings set out here.

Read-outs that look alike come from different tables or passages of the source.

The Ki is the dissociation constant of the complex between target and ligand, obtained from inhibition or displacement. A lower Ki goes with a stronger hold on the target. For orientation: IC50 means the concentration needed to halve the response being measured.

One assay addresses T1, FAS TE (Homo sapiens, UniProt P49327).
T1 construct: The unique carboxyl terminal thioesterase domain of fatty acid synthase
Put plainly: Fluorogenic Assay for Detection of FASTE Inhibition (4-MUH substrate). The assay is classed as biochemical. The settings on record: 500 nM FAS TE, 30 min pre-incubation at 37° C. On the procedure:
Fluorogenic Assay for Detection of FASTE Inhibition
The synthetic fluorogenic substrate, 4-methylumbelliferyl heptanoate (4-MUH), was purchased from Sigma (St. Louis, Mo.). The reaction mixture consisted of 500 nM FAS TE in buffer (100 mM Tris-HCl, 50 mM NaCl at pH 7.4) which was pre-incubated with 2.5 μL test compounds dissolved in DMSO at final concentrations of […] and/or 0.08-10 μM at 37° C. for 30 minutes. […] 4-MUH incubated without enzyme served as a background control. Results are the average of triplicate time points.

Another assay relates to MB-MDA-231 cells. Put plainly: Cell Viability Assay (MTS), MB-MDA-231. Type of assay: cell-based. To be noted: 3 k 231, 48 h. On the procedure: (§1) Cell Viability Assays for Determination of Test Compound Potencies
(§2) Plates were incubated for 2 h and absorbance was assayed at 490 nm. Background levels of formazan formation were measured in medium alone. IC50 values were derived from dose-response curves.

For the next assay, the system named is human fibroblast cells. Put plainly: Cell Viability Assay (MTS), human fibroblast cells (HFF). Type of assay: cell-based. The settings on record: 48 h. The method, then: as §1, §2
Where [1] appears, read: Homo sapiens, Fibroblast, 3 k HFF, read-out: avg 3 k HFF IC50.
Setting [2] is: Homo sapiens, Fibroblast, 50 k HFF, read-out: avg 50 k HFF IC50.
[3] abbreviates: 3 k HFF, read-out: avg 3 k HFF IC50.
Setting [4] is: 50 k HFF, read-out: avg 50 k HFF IC50.

T1 sequence (P49327 2207-2511 limits assumed): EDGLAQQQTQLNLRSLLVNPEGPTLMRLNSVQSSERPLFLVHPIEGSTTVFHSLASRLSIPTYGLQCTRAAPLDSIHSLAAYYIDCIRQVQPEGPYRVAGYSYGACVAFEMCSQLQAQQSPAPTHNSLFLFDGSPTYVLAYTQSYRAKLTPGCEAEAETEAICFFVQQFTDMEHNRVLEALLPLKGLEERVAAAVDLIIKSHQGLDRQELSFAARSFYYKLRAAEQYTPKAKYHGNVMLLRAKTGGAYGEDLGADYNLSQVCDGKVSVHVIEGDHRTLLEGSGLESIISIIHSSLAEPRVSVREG

With `C=CCC[C@@H](C[C@@H]1OC(=O)[C@H]1CCCCCC)OC(=O)[C@H](Cc1ccccc1)NC=O`, affinity at FAS TE was put at a Ki of 0.22 µM. The figures for the IC50 in the assay on MB-MDA-231 cells (48 h), in the assay with human fibroblast cells (setting [1]) and in the assay on human fibroblast cells (setting [2]) were 24.5 µM, 73.6 µM and 65 µM, respectively.

Take `C/C=C/CC[C@H](CC1OC(=O)[C@H]1CCCCCC)OC(=O)CNC=O` (some centres unmarked): the results for the IC50 in the assay on MB-MDA-231 cells (48 h), in the assay with human fibroblast cells (setting [1]) and with human fibroblast cells (setting [2]) were 57.3 µM, 39.9 µM and 37 µM, respectively.

Regarding `CCCCCCCCCCC[C@@H](CC1OC(=O)[C@H]1CCCCCC)OC(=O)CN(C)C` (some centres unmarked) [drawing 171], the IC50 in the assay with MB-MDA-231 cells (48 h) is 52.1 µM; in the assay on human fibroblast cells (setting [3]), 105 µM; with human fibroblast cells (setting [2]), 75.6 µM.

With `CCCCCCCCCCCCC[C@@H](CC1OC(=O)[C@H]1CCCCCC)OC(=O)[C@H](Cc1cnc[nH]1)NC=O` (some centres unmarked), the Ki at FAS TE stood at 0.17 µM. The IC50 in the assay on MB-MDA-231 cells (48 h) turned out to be 37.1 µM; in the assay on human fibroblast cells (setting [1]), 15.8 µM; with human fibroblast cells (setting [2]) it was 28 µM.

For the compound `CCCCCCCCCCC[C@H](C[C@@H]1OC(=O)[C@H]1CCCCCC)OC(=O)CNC=O`, the IC50 with MB-MDA-231 cells (48 h) was 11.7 µM; with human fibroblast cells (setting [1]), 46.8 µM; with human fibroblast cells (setting [2]) it was 40.5 µM.

Consider `CCCCCC[C@@H]1C(=O)OC1C[C@@H](COS(=O)(=O)c1ccc(C)cc1)OC(=O)CNC=O` (some centres unmarked), for which the IC50 in the assay with MB-MDA-231 cells (48 h), with human fibroblast cells (setting [1]) and in the assay on human fibroblast cells (setting [2]) was over 100 µM throughout.

For the compound `CCCCCCCCCCCCC[C@H](CC1OC(=O)[C@@H]1CCCCCC)OC(=O)CNC=O` (some centres unmarked), the IC50 in the assay with MB-MDA-231 cells (48 h), in the assay on human fibroblast cells (setting [1]) and with human fibroblast cells (setting [2]) was over 100 µM throughout.

Take `CCCCCCC/C=C/CC[C@@H](C[C@@H]1OC(=O)[C@H]1CCCCCC)OC(=O)[C@H](Cc1ccccc1)NC=O`: on FAS TE, the inhibitory constant (Ki) was determined as 0.15 µM. The results for the half-maximal inhibitory concentration (IC50) in the assay with MB-MDA-231 cells (48 h), in the assay on human fibroblast cells (setting [1]) and in the assay with human fibroblast cells (setting [2]) were over 100 µM, 24.9 µM and 35.9 µM, respectively.

For `CCCCCCCCCCCCC[C@H](C[C@@H]1OC(=O)[C@@H]1CCCCCC)OC(=O)CNC=O`, the affinity at FAS TE, expressed as Ki, was 0.04 µM.

With `CCCCCCCCCCC[C@@H](C[C@@H]1OC(=O)[C@H]1CC)OC(=O)CNC=O`, on FAS TE, the affinity, expressed as Ki, was 0.16 µM.

Consider `CCCCCCCCCCC[C@@H](O)C[C@@H]1OC(=O)[C@H]1CCCCCC`, for which the Ki on FAS TE turned out to be 0.48 µM. Besides, the half-maximal inhibitory concentration (IC50) turned out to be 26.8 µM in the assay with MB-MDA-231 cells (48 h), 40.4 µM in the assay with human fibroblast cells (setting [1]) and 29.3 µM with human fibroblast cells (setting [2]).

`CCCCCC[C@@H]1C(=O)O[C@H]1C[C@H](CCCCC)OC(=O)[C@@H](NC=O)C(C)C`: the concentration for half-maximal inhibition (IC50) in the assay with human fibroblast cells (setting [2]) is over 100 µM.

For the compound `C=CCC[C@H](CC1OC(=O)[C@H]1CCCCCC)OC(=O)CNC=O` (some centres unmarked) [listing 1 of 2 here], the IC50 in the assay with MB-MDA-231 cells (48 h), in the assay with human fibroblast cells (setting [1]) and with human fibroblast cells (setting [2]) was over 100 µM throughout.

`CCCCCCCCCCC[C@@H](C[C@@H]1OC(=O)[C@H]1CCCCCC)OC(=O)c1ccccc1` [drawing 169]: the half-inhibitory concentration (IC50) with MB-MDA-231 cells (48 h), with human fibroblast cells (setting [1]) and in the assay on human fibroblast cells (setting [2]) was over 100 µM each time.

For `CCCCCCCCCCC[C@@H](C[C@@H]1OC(=O)[C@H]1CCCCCC)OC(=O)CN(C)C` [drawing 152], the values for the IC50 in the assay with MB-MDA-231 cells, in the assay with human fibroblast cells (setting [3]) and with human fibroblast cells (setting [4]) were 26.9 µM, 37.3 µM and 49.3 µM, respectively.

As for `CCCCCCC/C=C/CC[C@@H](C[C@@H]1OC(=O)[C@H]1CCCCCC)OC(=O)[C@H](CC(C)C)NC=O`, the half-inhibitory concentration (IC50) with MB-MDA-231 cells (48 h) turned out to be 62.5 µM; with human fibroblast cells (setting [1]), 43.9 µM; with human fibroblast cells (setting [2]), 94.9 µM.

For the compound `C=CCC[C@H](CC1OC(=O)[C@H]1CCCCCC)OC(=O)CNC=O` (some centres unmarked) [listing 2 of 2 here], the inhibition constant Ki at FAS TE stood at 0.06 µM. Moreover, the half-maximal inhibitory concentration (IC50) is 54 µM in the assay with MB-MDA-231 cells, over 100 µM in the assay with human fibroblast cells (setting [3]) and over 100 µM with human fibroblast cells (setting [4]).

`C/C=C/CC[C@@H](C[C@@H]1OC(=O)[C@H]1CCCCCC)OC(=O)[C@H](Cc1ccccc1)NC=O`: the Ki at FAS TE worked out at 0.23 µM. In addition, the half-maximal inhibitory concentration (IC50) was 38.3 µM in the assay with MB-MDA-231 cells (48 h), 61.2 µM in the assay with human fibroblast cells (setting [1]) and 52.5 µM with human fibroblast cells (setting [2]).

For `CCCCCCCCCCC[C@@H](C[C@@H]1OC(=O)[C@H]1CCCCCC)OC(=O)c1ccccc1` [drawing 150], the IC50 with MB-MDA-231 cells, in the assay on human fibroblast cells (setting [3]) and with human fibroblast cells (setting [4]) was over 100 µM each time.

On to `CCCCCC[C@@H]1C(=O)O[C@H]1C[C@H](CC/C=C/c1ccc(F)cc1)OC(=O)[C@H](CC(C)C)NC=O`, for which the inhibitory constant (Ki) on FAS TE is 0.15 µM. Also, the half-maximal inhibitory concentration (IC50) in the assay on MB-MDA-231 cells (48 h) is 14.1 µM; in the assay with human fibroblast cells (setting [1]), 32.9 µM; in the assay with human fibroblast cells (setting [2]), 49.9 µM.

For the compound `CCCCCC[C@@H]1C(=O)O[C@H]1C[C@@H](COS(=O)(=O)c1ccc(C)cc1)OC(=O)CNC=O`, the affinity at FAS TE corresponds to a Ki of 0.1 µM.

Regarding `CCCCCCCCCCC[C@H](C[C@@H]1OC(=O)[C@H]1CC)OC(=O)CNC=O`, at FAS TE, the Ki came out at 0.23 µM. Moreover, the results for the half-maximal inhibitory concentration (IC50) in the assay on MB-MDA-231 cells (48 h) and in the assay on human fibroblast cells (setting [2]) were 1.3 µM and 9.7 µM, respectively.

In the case of `CCCCCCCCCCC[C@@H](CC1OC(=O)[C@H]1CC)OC(=O)CNC=O` (some centres unmarked), the results for the IC50 in the assay with MB-MDA-231 cells (48 h), in the assay on human fibroblast cells (setting [1]) and with human fibroblast cells (setting [2]) were 88.4 µM, over 100 µM and over 100 µM, respectively.

`C/C=C/CC[C@H](C[C@@H]1OC(=O)[C@H]1CCCCCC)OC(=O)[C@@H](NC=O)C(C)C`: the IC50 in the assay with human fibroblast cells (setting [1]) was 101 µM; in the assay with human fibroblast cells (setting [2]), over 100 µM.

Regarding `CCCCCCCCCCC[C@H](CC1OC(=O)[C@H]1CCCC)OC(=O)CNC=O` (some centres unmarked), at FAS TE, the Ki turned out to be 0.16 µM. In addition, the figures for the IC50 with MB-MDA-231 cells (48 h), in the assay on human fibroblast cells (setting [1]) and in the assay on human fibroblast cells (setting [2]) were 35.7 µM, 31.1 µM and 43.2 µM, respectively.

Turning to `CCCCCCCCCCC[C@@H](C[C@@H]1OC(=O)[C@H]1CCCCCC)OC(=O)CNC=O`, the IC50 in the assay with MB-MDA-231 cells (48 h) is 4.8 µM; in the assay on human fibroblast cells (setting [1]), 19.9 µM; with human fibroblast cells (setting [2]), 27.6 µM.

As to `C/C=C/CC[C@@H](C[C@@H]1OC(=O)[C@H]1CCCCCC)OC(=O)[C@@H](NC=O)C(C)C`, the concentration for half-maximal inhibition (IC50) in the assay on MB-MDA-231 cells (48 h) came out at 23 µM; in the assay on human fibroblast cells (setting [1]) it was 35 µM; in the assay on human fibroblast cells (setting [2]) it was 27.6 µM.

On to `CCCCCCCCCCC[C@@H](C[C@@H]1OC(=O)[C@H]1CCCCCC)OC(=O)[C@H](CC(C)C)NC=O`, for which the concentration for half-maximal inhibition (IC50) was 20.1 µM in the assay on MB-MDA-231 cells (48 h), over 100 µM in the assay on human fibroblast cells (setting [1]) and over 100 µM in the assay on human fibroblast cells (setting [2]).

Turning to `CCCCCC[C@@H]1C(=O)OC1C[C@@H](C)OC(=O)CNC=O` (some centres unmarked), the IC50 in the assay on MB-MDA-231 cells (48 h), in the assay on human fibroblast cells (setting [1]) and in the assay with human fibroblast cells (setting [2]) was over 100 µM each time.

Turning to `C=CCC[C@H](C[C@@H]1OC(=O)[C@H]1CCCCCC)OC(=O)CNC=O`, at FAS TE, the inhibition constant (Ki) worked out at 0.53 µM.

`CCCCCC[C@@H]1C(=O)O[C@H]1C[C@H](CC/C=C/COCCOCCOCC(=O)OCc1ccccc1)OC(=O)[C@H](CC(C)C)NC=O` gave a Ki on FAS TE of 0.23 µM. Also, the IC50 in the assay on MB-MDA-231 cells (48 h) was 47.3 µM; in the assay on human fibroblast cells (setting [1]), 70.4 µM; in the assay with human fibroblast cells (setting [2]) it was over 100 µM.

As to `CCCCCC[C@@H]1C(=O)O[C@H]1C[C@@H](C)OC(=O)CNC=O`, the affinity on FAS TE, expressed as Ki, was 0.09 µM. In other words, the double-digit nanomolar range.
